# From patent US9950044B2, “Treatment of pulmonary vascular remodeling with neprilysin” (THE REGENTS OF THE UNIVERSITY OF COLORADO, A BODY CORPORATE, priority 2010, dated 2018)
# How the values were obtained:
# [1] = molecular target: T1, NEP in human PA SMCs (Homo sapiens, UniProt P08473); test: NEP catalytic activity in human PA SMCs (fluorometric); assay type: cell-based; conditions: for prevention of H2O2-induced decreases in PA SMC NEP activity: antioxidant added 0.5 h before 4 h H2O2 (100 μM), MnTMPyp 20 μM, PEG-catalase 40 units/ml
# T1 construct: host or cells: primary human PA SMCs, passages 6-10
# Method: (§1) Lung samples ([…]) or PA SMCs were homogenized in 0.5 ml 20 mM MES, pH 6.5, containing protease inhibitors, and for PA SMCs, 0.5% CHAPS. After centrifugation (10,000×g, 10 min), supernatant was stored at −80° C. NEP activity was measured as described (Dempsey et al., 2009). DPPIV activity was measured by DPPIV-Glo Protease Assay (Promega). Western analyses (Dempsey et al., 2009) with anti-human NEP (56C6, Neomarkers) were assessed by densitometry.
# (§2) PA SMCs were isolated from the main PA of ‘normal’ human tissue donors (Clonetics®, Basel, Switzerland, α-SM actin positive, Factor VIII negative). Passages 6-10 were maintained in SmBM® (5% FBS), at 37° C., and used for experimentation. […] The antioxidants Tiron (2.5 mM; Sigma) (Taiwo, 2008), MnTMPyp (an SOD/catalase mimetic (Day et al., 1997), 20 μM; Calbiochem), or polyethylene glycol (PEG) conjugated catalase Beckman et al., 1988) (40 units/ml; Sigma), or the protein degradation inhibitors (Folimycin Huss and Wieczorek, 2009) for lysosomes, 50 nM; Clastolactacystin β-lactone (Dick et al., 1996) for proteasomes, 1 μM; Calbiochem) were added 0.5 or 2 h, respectively, before exposures.
# [2] = molecular target: recombinant human NEP (Homo sapiens, UniProt P08473); test: biochemical; conditions: read-out: inhibition of residual rNEP activity
# Method: as §1
# [3] = molecular target: NEP activity in ‘Control’ human lung homogenates (Homo sapiens, UniProt P08473); test: biochemical; conditions: read-out: inhibition of NEP activity in ‘Control’ crude lung homogenates
# Method: as §1
# [4] = tested on: NEP mRNA in human PA SMCs; test: NEP mRNA levels in human PA SMCs (qRT-PCR); assay type: cell-based
# Method: as §2
# [5] = tested on: NEP+/+ PASMCs; test: Proliferation of NEP+/+ PASMCs (3H-thymidine incorporation); assay type: cell-based, mouse; conditions: wild-type PASMCs, 48 h treatment; phosphoramidon 10 μMole/L or NEP siRNA 10 nMole/L; serum 0.2%, PDGF 10 ng/ml
# Method: (§3) Mice were anesthetized with sodium pentobarbital (100 mg/kg i.p.). Proximal medial tissue was micro dissected from individual age matched 13-17 wk old NEP+/+ and NEP−/− littermate mice. Tissue was digested with […] and cells were grown in DMEM-F-12 medium containing 10% fetal bovine serum (FBS) as described (Petkov et al., 2003). PASMCs were characterized by light microscopic appearance, growth characteristics, and stained for α-SM-actin, SM-myosin, Factor VIII and LDL between passage 3 and 6. PASMCs were used for studies between passage 6 and 13.
# The effects of growth factors and neuropeptides on DNA synthesis were evaluated as previously reported (Petkov et al., 2003). SMCs were grown in DMEM containing 10% FBS in 24-well plates for about 16 hr. PASMCs were then incubated in DMEM supplemented with 0.2% FBS for 24 hr to make them quiescent. […] [^3H]-thymidine obtained from Perkin Elmer (Waltham, Mass.) at 1 mCi/ml was added for the last 6 hr. After labeling was completed, the cells were washed twice with ice-cold PBS, and proteins were precipitated with 5% perchloric acid. The precipitate was dissolved with 0.5N NaOH and SDS and radioactivity was measured using a liquid scintillation counter made by Beckman Coulter, Inc. (Brea, Calif.).
# [6] = molecular target: T2, NEP activity in wild-type cells (Mus musculus, UniProt Q61391); conditions: phosphoramidon 10 μmole/liter; cited from earlier work
# T2 construct: endogenous in cells; host or cells: wild-type (NEP+/+) mouse PASMCs
# T2 sequence (Q61391 1-750): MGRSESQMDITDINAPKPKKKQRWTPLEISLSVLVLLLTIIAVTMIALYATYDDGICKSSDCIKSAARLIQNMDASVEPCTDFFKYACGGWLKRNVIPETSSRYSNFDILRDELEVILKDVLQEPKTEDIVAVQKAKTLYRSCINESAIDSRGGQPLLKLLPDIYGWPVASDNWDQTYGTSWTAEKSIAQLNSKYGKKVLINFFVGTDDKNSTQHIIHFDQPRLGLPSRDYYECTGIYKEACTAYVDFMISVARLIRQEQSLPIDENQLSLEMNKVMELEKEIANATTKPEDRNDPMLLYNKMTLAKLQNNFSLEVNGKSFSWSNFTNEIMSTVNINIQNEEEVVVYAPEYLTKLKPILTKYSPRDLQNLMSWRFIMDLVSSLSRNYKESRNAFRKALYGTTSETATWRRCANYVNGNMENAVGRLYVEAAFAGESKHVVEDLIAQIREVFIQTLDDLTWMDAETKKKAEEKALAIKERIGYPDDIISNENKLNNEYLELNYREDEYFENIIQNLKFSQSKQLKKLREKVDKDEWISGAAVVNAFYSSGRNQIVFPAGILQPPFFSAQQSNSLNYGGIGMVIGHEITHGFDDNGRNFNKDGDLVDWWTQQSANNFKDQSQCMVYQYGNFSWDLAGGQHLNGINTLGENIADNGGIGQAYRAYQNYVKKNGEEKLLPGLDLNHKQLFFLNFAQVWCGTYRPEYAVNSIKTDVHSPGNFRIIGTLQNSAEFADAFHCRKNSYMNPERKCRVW
# [7] = tested on: SM-contractile proteins (α-SM-actin, SM-myosin, SM-22, calponin); test: SM-contractile protein expression in PASMCs (Western blotting); assay type: cell-based, mouse
# Method: Cell lysates were prepared in immunoprecipitation buffer (20 mM Tris HCl (pH 7.5), 150 mM NaCl, 1 mM EDTA, 10% glycerol, 1% Nonidet P-40; 1 mM dithiothreitol, 10 mM NaF, 1 mM sodium orthovanadate, 10 μg/ml leupeptin, 10 μg/ml aprotinin, 10 μg/ml pepstatin A, and 1 mM phenylmethylsulfonyl fluoride) (Petkov et al., 2003). Cells were scraped from the plates, lysed on ice for 30 min. Cellular debris was eliminated by centrifugation for 10 min at 10,000 rpm. The protein concentration was determined by the BCA protein Assay®. Proteins (20-100 μg) were separated on SDS-PAGE and transferred to nitrocellulose membranes obtained from GE Healthcare, (Piscataway, N.J.). Membranes were blocked in PBS containing 0.1% Tween-20 and 1% BSA for 1 h at room temperature. Membranes were incubated with primary antibodies overnight at 4° C., and with secondary antibodies for 1 h at room temperature. All antibodies were diluted in PBS containing 0.1% Tween 20 and 1% BSA, and ECL reagent obtained from Perkin Elmer (Waltham, Mass.) was used for immunodetection. GAPDH was used as a loading control.
# A Bio-Rad gel scanner and densitometer (Gel DocXR with Quantity 1 program) were used to assess the intensity of the bands obtained by Western blots. […] The arbitrary units obtained were normalized to GAPDH and the ratios for NEP+/+ to NEP−/− PASMCs were calculated. […]
# [8] = tested on: NEP+/+ PASMCs; test: Migration of NEP+/+ PASMCs (scratch assay); assay type: cell-based, mouse; conditions: wild-type PASMCs, 48 h treatment; phosphoramidon 10 μMole/L or NEP siRNA 10 nMole/L; serum 0.2%, PDGF 10 ng/ml
# Method: as §3
# Briefly, PASMCs were grown to confluence on 60 mm plates (Hamidi et al., 2008). The cells were serum starved in DMEM-F-12 medium with 0.2% serum for 24 h, and scraped with a sterile P200 pipette tip to generate a cell-free zone. PASMCs were then rinsed with medium and incubated with either 0.2% serum or 10 ng/ml PDGF-BB and cells that migrated into the scratch were visualized by light microscopic imaging. Quantitation of migration was done by counting the number of PASMCs in a 5 cm^2 area of the scratch. […]
# Migration was determined by a modified Boyden chamber assay using a polycarbonate filter with […] pore diameter obtained from Neuroprobe (Gaithersburg, Md.) (Said et al., 2007). […] The membranes were examined under a microscope and the cells that migrated to the lower surface were counted (five random 20× fields/well).
# [9] = tested on: NEP KO PA SMCs; conditions: added to the cell culture media or lentiviral transduction; cited from earlier work
# T1 sequence (P08473 whole entry): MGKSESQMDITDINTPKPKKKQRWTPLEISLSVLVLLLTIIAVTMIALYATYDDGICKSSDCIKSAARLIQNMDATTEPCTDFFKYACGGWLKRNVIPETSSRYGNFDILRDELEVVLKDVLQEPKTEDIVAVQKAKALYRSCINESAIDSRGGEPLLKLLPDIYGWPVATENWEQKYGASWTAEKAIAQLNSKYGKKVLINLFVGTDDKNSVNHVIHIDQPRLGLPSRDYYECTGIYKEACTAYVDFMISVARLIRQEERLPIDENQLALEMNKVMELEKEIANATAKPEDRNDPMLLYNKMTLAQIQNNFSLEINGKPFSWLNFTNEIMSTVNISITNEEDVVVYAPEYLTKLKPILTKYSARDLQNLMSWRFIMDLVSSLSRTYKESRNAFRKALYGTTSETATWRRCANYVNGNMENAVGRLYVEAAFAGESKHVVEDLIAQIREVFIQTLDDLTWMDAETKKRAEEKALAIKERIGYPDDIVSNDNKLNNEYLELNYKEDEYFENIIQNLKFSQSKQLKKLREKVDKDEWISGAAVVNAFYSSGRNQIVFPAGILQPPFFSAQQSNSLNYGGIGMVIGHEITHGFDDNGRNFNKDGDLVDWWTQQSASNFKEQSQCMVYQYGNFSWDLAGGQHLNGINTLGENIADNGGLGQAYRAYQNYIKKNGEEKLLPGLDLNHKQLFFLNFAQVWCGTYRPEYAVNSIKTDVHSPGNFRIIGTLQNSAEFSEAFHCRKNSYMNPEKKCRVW
# Sequence of NEP activity in ‘Control’ human lung homogenates (P08473 whole entry): as above
# Sequence of recombinant human NEP (P08473 whole entry): as above
molecule,measurement,setting,value
MnTMPyp,prevention of H2O2-induced decreases in PA SMC NEP activity,[1]; Tiron 2.5 mM,prevented
"OO [H2O2, hydrogen peroxide]","NEP activity after exposure, without Tiron","[1]; 4 h exposure, CSE 5 μg/ml, H2O2 100 μM",significantly decreased
same,inhibition at 100 µM,[2],68%
same,inhibition at 100 µM,[3],38%
same,effect on NEP mRNA expression,"[4]; 100 μM H2O2, 48 h",did not significantly decrease
same,transient decrease in NEP mRNA,"[4]; after 4 h exposure to H2O2, preliminary experiments",40%
CC(C)C[C@H](NP(=O)(O)O[C@@H]1O[C@@H](C)[C@H](O)[C@@H](O)[C@H]1O)C(=O)N[C@@H](Cc1c[nH]c2ccccc12)C(=O)O [phosphoramidon],proliferation in response to serum and PDGF,[5],increased
same,inhibition of NEP activity in wild-type cells,[6],completely inhibits
same,expression of SM-contractile proteins in NEP+/+ cells,[7]; phosphoramidon 10 μMole/L or NEP siRNA 10 nMole/L,decrease
same,migration in response to serum and PDGF,[8],increased
O=S(=O)(O)c1cc(O)c(O)c(S(=O)(=O)O)c1 [Tiron],"prevention of decreases in NEP activity due to CSE, hypoxia or H2O2","[1]; Tiron 2.5 mM, 0.5 h before and throughout 4 h exposure",prevented
same,NEP activity under normoxia with Tiron vs normoxia alone,"[1]; Tiron 2.5 mM, normoxia",did not differ significantly
same,prevention of H2O2-induced decreases in PA SMC NEP activity,[1]; Tiron 2.5 mM,prevented
"rNEP: recombinant human neprilysin protein (protein, UniProt P08473 2-750, looked up) Neprilysin: GKSESQMDITDINTPKPKKKQRWTPLEISLSVLVLLLTIIAVTMIALYATYDDGICKSSDCIKSAARLIQNMDATTEPCTDFFKYACGGWLKRNVIPETSSRYGNFDILRDELEVVLKDVLQEPKTEDIVAVQKAKALYRSCINESAIDSRGGEPLLKLLPDIYGWPVATENWEQKYGASWTAEKAIAQLNSKYGKKVLINLFVGTDDKNSVNHVIHIDQPRLGLPSRDYYECTGIYKEACTAYVDFMISVARLIRQEERLPIDENQLALEMNKVMELEKEIANATAKPEDRNDPMLLYNKMTLAQIQNNFSLEINGKPFSWLNFTNEIMSTVNISITNEEDVVVYAPEYLTKLKPILTKYSARDLQNLMSWRFIMDLVSSLSRTYKESRNAFRKALYGTTSETATWRRCANYVNGNMENAVGRLYVEAAFAGESKHVVEDLIAQIREVFIQTLDDLTWMDAETKKRAEEKALAIKERIGYPDDIVSNDNKLNNEYLELNYKEDEYFENIIQNLKFSQSKQLKKLREKVDKDEWISGAAVVNAFYSSGRNQIVFPAGILQPPFFSAQQSNSLNYGGIGMVIGHEITHGFDDNGRNFNKDGDLVDWWTQQSASNFKEQSQCMVYQYGNFSWDLAGGQHLNGINTLGENIADNGGLGQAYRAYQNYIKKNGEEKLLPGLDLNHKQLFFLNFAQVWCGTYRPEYAVNSIKTDVHSPGNFRIIGTLQNSAEFSEAFHCRKNSYMNPEKKCRVW",proliferation of the NEP KO PA SMCs,[9],dose-dependent inhibition
same,"levels of SM-markers (α-SM-actin, SM-22, calponin) in null PASMCs","[7]; NEP−/− PASMC, lentiviral human NEP construct or rNEP 10 μg/ml",restored
"PEG-catalase: polyethylene glycol (PEG) conjugated catalase, antioxidant (conjugate, UniProt P00432 2-527, looked up, PEG conjugated, polyethylene glycol (PEG) conjugated catalase, antioxidant) Catalase: ADNRDPASDQMKHWKEQRAAQKPDVLTTGGGNPVGDKLNSLTVGPRGPLLVQDVVFTDEMAHFDRERIPERVVHAKGAGAFGYFEVTHDITRYSKAKVFEHIGKRTPIAVRFSTVAGESGSADTVRDPRGFAVKFYTEDGNWDLVGNNTPIFFIRDALLFPSFIHSQKRNPQTHLKDPDMVWDFWSLRPESLHQVSFLFSDRGIPDGHRHMNGYGSHTFKLVNANGEAVYCKFHYKTDQGIKNLSVEDAARLAHEDPDYGLRDLFNAIATGNYPSWTLYIQVMTFSEAEIFPFNPFDLTKVWPHGDYPLIPVGKLVLNRNPVNYFAEVEQLAFDPSNMPPGIEPSPDKMLQGRLFAYPDTHRHRLGPNYLQIPVNCPYRARVANYQRDGPMCMMDNQGGAPNYYPNSFSAPEHQPSALEHRTHFSGDVQRFNSANDDNVTQVRTFYLKVLNEEQRKRLCENIAGHLKDAQLFIQKKAVKNFSDVHPEYGSRIQALLDKYNEEKPKNAVHTYVQHGSHLSAREKANL",prevention of H2O2-induced decreases in PA SMC NEP activity,[1]; Tiron 2.5 mM,prevented
